Experiments:
[1] = molecular target: T1, DPP-IV (Homo sapiens, UniProt P27487); test: DPP-IV inhibition, compounds screened by using human plasma; type: biochemical; settings: screened by using human plasma (starred examples); for inhibition at 0.3 µM: 300 nM compound concentration
T1 construct: from tissue; host or cells: human plasma (per the earlier reading of the assay)

[2] = molecular target: T2, human recombinant Dipeptidyl peptidase IV enzyme (hrDPP IV) (Homo sapiens, UniProt P27487); test: DPP IV assay, cleavage of H-Gly-Pro-AMC by human recombinant DPP-IV enzyme; type: biochemical
T2 construct: purchased R&D systems
T2 sequence (P27487 whole entry): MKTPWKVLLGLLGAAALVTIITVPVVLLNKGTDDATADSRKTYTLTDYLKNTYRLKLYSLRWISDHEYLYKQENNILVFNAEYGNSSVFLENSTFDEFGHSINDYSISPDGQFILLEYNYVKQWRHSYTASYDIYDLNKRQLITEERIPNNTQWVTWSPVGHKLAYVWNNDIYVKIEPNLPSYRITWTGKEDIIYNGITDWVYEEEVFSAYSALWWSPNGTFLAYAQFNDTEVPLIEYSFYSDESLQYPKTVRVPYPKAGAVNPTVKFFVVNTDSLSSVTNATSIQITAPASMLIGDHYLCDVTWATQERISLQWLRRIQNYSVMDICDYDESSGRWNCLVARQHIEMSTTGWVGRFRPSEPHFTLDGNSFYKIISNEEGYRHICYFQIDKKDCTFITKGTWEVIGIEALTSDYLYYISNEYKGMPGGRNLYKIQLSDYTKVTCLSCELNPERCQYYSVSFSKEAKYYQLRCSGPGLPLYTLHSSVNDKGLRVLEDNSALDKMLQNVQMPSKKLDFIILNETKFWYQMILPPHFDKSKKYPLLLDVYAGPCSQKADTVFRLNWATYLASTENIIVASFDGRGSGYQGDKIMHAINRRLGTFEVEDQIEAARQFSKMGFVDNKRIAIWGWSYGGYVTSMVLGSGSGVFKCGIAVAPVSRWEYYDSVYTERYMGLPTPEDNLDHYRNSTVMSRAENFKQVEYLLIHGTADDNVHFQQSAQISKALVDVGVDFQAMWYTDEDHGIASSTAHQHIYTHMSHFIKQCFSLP
Method in brief: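 Human recombinant DPP-IV (3 ng) preincubated 60 min at room temperature with compound in 25 mM HEPES, 140 mM NaCl, 1% BSA, pH 7.8, in duplicate. Reaction with H-Gly-Pro-AMC (10 μL of 100 μM) for 20 min, stopped with acetic acid; AMC fluorescence 360/460 nm, IC50 from percent inhibition.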

[3] = molecular target: T3, human recombinant Dipeptidyl peptidase 8 enzyme (hrDPP 8) (Homo sapiens, UniProt Q6V1X1); test: DPP 8 assay, cleavage of H-Ala-Pro-AFC; type: biochemical; settings: selectivity for DPP-IV over DPP 8
T3 construct: purchased R&D systems
T3 sequence (Q6V1X1 whole entry): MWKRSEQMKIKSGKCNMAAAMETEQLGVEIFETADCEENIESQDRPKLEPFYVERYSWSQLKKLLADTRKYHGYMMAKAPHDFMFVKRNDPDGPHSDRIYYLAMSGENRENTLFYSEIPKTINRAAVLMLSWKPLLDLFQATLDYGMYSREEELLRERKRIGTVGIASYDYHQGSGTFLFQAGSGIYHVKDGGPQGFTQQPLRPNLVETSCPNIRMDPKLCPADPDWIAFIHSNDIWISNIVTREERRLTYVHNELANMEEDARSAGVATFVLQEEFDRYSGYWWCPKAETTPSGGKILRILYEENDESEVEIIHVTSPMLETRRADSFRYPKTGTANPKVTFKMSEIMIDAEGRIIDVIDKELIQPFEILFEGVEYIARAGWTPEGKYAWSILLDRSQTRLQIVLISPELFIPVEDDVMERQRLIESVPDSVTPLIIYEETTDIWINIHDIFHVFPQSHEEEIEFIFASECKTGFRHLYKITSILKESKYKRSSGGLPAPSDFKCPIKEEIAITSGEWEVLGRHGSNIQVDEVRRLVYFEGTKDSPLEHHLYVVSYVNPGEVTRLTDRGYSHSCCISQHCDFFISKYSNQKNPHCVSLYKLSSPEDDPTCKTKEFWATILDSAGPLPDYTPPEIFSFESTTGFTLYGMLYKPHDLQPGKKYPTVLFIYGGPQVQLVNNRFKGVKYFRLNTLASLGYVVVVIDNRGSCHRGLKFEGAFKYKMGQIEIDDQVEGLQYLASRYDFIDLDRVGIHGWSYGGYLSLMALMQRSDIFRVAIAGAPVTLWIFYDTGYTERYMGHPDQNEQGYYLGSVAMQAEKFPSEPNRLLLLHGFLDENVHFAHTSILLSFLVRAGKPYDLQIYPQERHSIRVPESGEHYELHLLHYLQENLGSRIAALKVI
Procedure: DPP 8 activity was determined by the cleavage rate of 7-amino 4-fluoromethylcoumarin (AFC) from the substrate H-Ala-Pro-AFC. In brief, the assay was conducted by adding 30 ng of human recombinant Dipeptidyl peptidase 8 enzyme (hrDPP 8, available commercially from R&D systems) in 70 μL of the assay buffer (50 mM TRIS and 5 mM EDTA, pH 7.7) to a 96 well black flat bottom microtitre plate. Test compound was added as 10 μL additions to all wells except blank and total activity wells. After incubation of test substance with enzyme for 30 minutes at room temperature, 10 μL of 100 μM substrate H-Ala-Pro-AFC was added. After mixing, the plate was left for 30 minutes at room temperature. Then the reaction was terminated by addition of 10 μL of 25% Glacial Acetic Acid. Fluorescence was measured using Spectra Max Gemini XS (Molecular Devices, USA) at an excitation filter of 400 nm and emission filter of 505 nm.
Test compound dissolved in DMSO were diluted with assay buffer at different concentrations and tested in duplicates. Percentage inhibition was calculated with respect to total activity. IC50 value was calculated using Prism Software.

[4] = molecular target: T4, human recombinant Dipeptidyl peptidase 9 enzyme (hrDPP 9) (Homo sapiens, UniProt Q86TI2); test: DPP 9 assay, cleavage of H-Gly-Pro-AMC; type: biochemical; settings: selectivity for DPP-IV over DPP 9
T4 construct: purchased R&D systems
T4 sequence (Q86TI2 whole entry): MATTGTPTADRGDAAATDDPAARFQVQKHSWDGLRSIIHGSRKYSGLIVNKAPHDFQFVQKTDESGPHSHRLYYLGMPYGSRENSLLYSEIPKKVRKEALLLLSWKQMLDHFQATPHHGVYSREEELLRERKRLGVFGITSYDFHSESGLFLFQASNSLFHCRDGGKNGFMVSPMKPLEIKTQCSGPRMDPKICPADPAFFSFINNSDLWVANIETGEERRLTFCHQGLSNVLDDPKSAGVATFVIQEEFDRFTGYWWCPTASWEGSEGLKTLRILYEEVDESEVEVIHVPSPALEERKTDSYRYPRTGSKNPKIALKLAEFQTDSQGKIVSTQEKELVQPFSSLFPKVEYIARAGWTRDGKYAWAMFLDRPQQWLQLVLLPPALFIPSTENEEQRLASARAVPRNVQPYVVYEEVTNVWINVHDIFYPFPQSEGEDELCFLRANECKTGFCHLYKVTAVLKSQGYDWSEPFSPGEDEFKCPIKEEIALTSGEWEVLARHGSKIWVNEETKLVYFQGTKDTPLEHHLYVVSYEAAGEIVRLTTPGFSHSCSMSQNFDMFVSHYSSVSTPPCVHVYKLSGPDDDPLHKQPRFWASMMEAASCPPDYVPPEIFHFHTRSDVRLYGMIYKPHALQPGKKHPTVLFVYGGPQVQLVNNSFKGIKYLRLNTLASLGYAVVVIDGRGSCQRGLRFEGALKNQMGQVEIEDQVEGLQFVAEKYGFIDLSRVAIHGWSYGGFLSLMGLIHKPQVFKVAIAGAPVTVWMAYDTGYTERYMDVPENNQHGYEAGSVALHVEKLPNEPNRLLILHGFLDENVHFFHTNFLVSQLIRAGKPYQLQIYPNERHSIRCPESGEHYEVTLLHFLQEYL
Procedure: DPP 9 activity was determined by the cleavage rate of 7-amino 4-methylcoumarin (AMC) from the substrate H-Gly-Pro-AMC. In brief, the assay was conducted by adding 10 ng of human recombinant Dipeptidyl peptidase 9 enzyme (hrDPP 9, available commercially from R&D systems) in 70 μL of the assay buffer (50 mM TRIS and 5 mM EDTA, pH 7.7) to a 96 well black flat bottom microtitre plate. Test compound was added as 10 μL additions to all wells except blank and total activity wells. After incubation of test substance with enzyme for 30 minutes at room temperature, 10 μL of 100 μM substrate H-Gly-Pro-AMC was added. After mixing, the plate was left for 30 minutes at room temperature. Then the reaction was terminated by addition of 10 μL of 25% Glacial Acetic Acid. Fluorescence was measured using Spectra Max Gemini XS (Molecular Devices, USA) at an excitation filter of 360 nm and emission filter of 460 nm.
Test compound dissolved in DMSO were diluted with assay buffer at different concentrations and tested in duplicates. Percentage inhibition was calculated with respect to total activity. IC50 value was calculated by using Prism Software.

[5] = system: C57BL/6 mice; test: Oral glucose tolerance test; type: in vivo; settings: compound 10 mg/kg; for Antihyperglycemic activity, reduction in AUC (blood glucose), Time 0.50 hr: glucose 2 g/kg challenge 0.50 hr after compound administration; for Antihyperglycemic activity, reduction in AUC (blood glucose), Time 6.00 hr: glucose 2 g/kg challenge 6.00 hr after compound administration, NA = No activity
Procedure: Effect of compound on glucose tolerance was examined in 7 week old C57BL/6 mice. Animals were kept for 18 h fasting and were challenged with glucose (2 g/kg) 30 min after compound (10 mg/kg) administration. Blood samples for glucose measurement were obtained by tail bleed pre dose and at serial time points after the glucose load (30, 60 and 120 minutes). Blood glucose estimation was done by using ContourTS active strips on glucometer (Bayer). To find the time response on glucose excursion, animals were challenged with glucose at different time point after compound administration (0.5, 2, 4, 6, 8, 12 or 24 hours) at blood glucose was measured at pre (0 minute) and post (30, 60 and 120 minutes) glucose load.
Results of blood glucose were expressed as area under curve (AUC) was calculated using Prism software.

T1 sequence (P27487 39-766 limits assumed): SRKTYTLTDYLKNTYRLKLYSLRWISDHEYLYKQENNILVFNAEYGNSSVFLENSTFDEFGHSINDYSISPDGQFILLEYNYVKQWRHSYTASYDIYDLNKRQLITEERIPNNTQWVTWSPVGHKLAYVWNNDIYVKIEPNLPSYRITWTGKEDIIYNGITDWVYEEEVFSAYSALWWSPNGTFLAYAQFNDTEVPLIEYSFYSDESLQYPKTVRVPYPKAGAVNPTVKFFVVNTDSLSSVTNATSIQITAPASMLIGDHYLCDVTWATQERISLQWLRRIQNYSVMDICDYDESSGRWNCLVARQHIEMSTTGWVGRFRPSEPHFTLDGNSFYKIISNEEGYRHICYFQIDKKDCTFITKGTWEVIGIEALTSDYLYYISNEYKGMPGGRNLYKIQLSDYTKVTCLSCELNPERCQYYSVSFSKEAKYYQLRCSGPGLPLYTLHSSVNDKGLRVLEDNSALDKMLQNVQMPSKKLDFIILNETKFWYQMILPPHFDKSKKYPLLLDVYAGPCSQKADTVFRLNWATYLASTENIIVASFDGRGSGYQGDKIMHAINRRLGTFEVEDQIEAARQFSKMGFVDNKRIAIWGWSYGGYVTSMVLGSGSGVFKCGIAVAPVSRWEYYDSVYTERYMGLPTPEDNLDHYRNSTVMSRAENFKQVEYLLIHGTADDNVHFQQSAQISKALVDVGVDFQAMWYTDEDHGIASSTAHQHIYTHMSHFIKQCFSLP

IC50 [2] [nM]	Selectivity (Fold) DPP 8 [3] [Fold]	Selectivity (Fold) DPP 9 [4] [Fold]	melting point [°C]	Compound	Antihyperglycemic activity, reduction in AUC (blood glucose), Time 0.50 hr [5] [%]	other results
–	–	–	–	CC1(C)[C@@H](Cn2cncn2)CC[C@@]1(C)NCC(=O)N1C[C@H](F)C[C@H]1C#N [Example 2, (2S,4R)-1-(2-((1R,3S)-3-((1H-1,2,4-Triazol-1-yl)methyl)-1,2,2-trimethylcyclopentylamino)acetyl)-4-fluoropyrrolidine-2-carbonitrilemethane sulfonate]	–	inhibition at 0.3 µM [1]: 10.5%
11 ± 0.16	>27000	>5000	132 to 135	CC1(C)[C@H](Cn2cncn2)CC[C@]1(C)NCC(=O)N1C[C@@H](F)C[C@H]1C#N [Example 3, (2S,4S)-1-(2-((1S,3R)-3-((1H-1,2,4-Triazol-1-yl)methyl)-1,2,2-trimethylcyclopentylamino)acetyl)-4-fluoropyrrolidine-2-carbonitrile]	53.89	–
–	–	–	–	CC1(C)[C@H](Cn2cncn2)CC[C@]1(C)NCC(=O)N1C[C@H](F)C[C@H]1C#N [Example 5, (2S,4R)-1-(2-((1S,3R)-3-((1H-1,2,4-Triazol-1-yl)methyl)-1,2,2-trimethylcyclopentylamino)acetyl)-4-fluoropyrrolidine-2-carbonitrilemethanesulfonate]	–	inhibition at 0.3 µM [1]: 4.1%
–	–	–	123 to 127	CC1(C)[C@@H](CNC(=O)c2ccccc2F)CC[C@@]1(C)NCC(=O)N1C[C@@H](F)C[C@H]1C#N [Example 21, N-(((1S,3R)-3-(2-((2S,4S)-2-Cyano-4-fluoropyrrolidin-1-yl)-2-oxoethylamino)-2,2,3-trimethylcyclopentyl)methyl)-2-fluorobenzamide]	–	IC50 [1]: 330 nM
7.61	>13000	>1100	171 to 174	CC1(C)[C@H](CN2CCCS2(=O)=O)CC[C@]1(C)NCC(=O)N1C[C@@H](F)C[C@H]1C#N [Example 29, (2S,4S)-1-(2-((1S,3R)-3-[(1,1-Dioxidoisothiazolidin-2-yl)methyl]-1,2,2-trimethyleyclopentylamino)acetyl)-4-fluoropyrrolidine-2-carbonitrile]	42.52	Antihyperglycemic activity, reduction in AUC (blood glucose), Time 6.00 hr [5]: 20.21%
6.01	>9500	>1900	151 to 154	CC1(C)[C@H](Cn2cnnn2)CC[C@]1(C)NCC(=O)N1C[C@@H](F)C[C@H]1C#N [Example 32, (2S,4S)-1-(2-((1S,3R)-3-((1H-Tetrazol-1-yl)methyl)-1,2,2-trimethylcyclopentylamino)acetyl)-4-fluoropyrrolidine-2-carbonitrile]	17.80	–
8.94	>10000	>1500	163 to 166	CC1(C)[C@H](CN2CCOCC2)CC[C@]1(C)NCC(=O)N1C[C@@H](F)C[C@H]1C#N [Example 34, (2S,4S)-4-Fluoro-1-(2-((1S,3R)-1,2,2-trimethyl-3-(morpholinomethyl)cyclopentylamino)acetyl)pyrrolidine-2-carbonitrile]	54.32	–
–	–	–	–	CC1(C)[C@@H](c2nc(-c3ccc(F)cc3)no2)CC[C@@]1(C)NCC(=O)N1C[C@@H](F)C[C@H]1C#N [Example 48, (2S,4S)-4-Fluoro-1-(2-((1R,3S)-3-(3-(4-fluorophenyl)-1,2,4-oxadiazol-5-yl)-1,2,2-trimethyleyclopentylamino)acetyl)pyrrolidine-2-carbonitrile]	–	inhibition at 0.3 µM [1]: 4.46%
6.59	>19000	>7000	147 to 149	CC1(C)[C@H](Cc2noc(CO)n2)CC[C@]1(C)NCC(=O)N1C[C@@H](F)C[C@H]1C#N [Example 60, (2S,4S)-4-Fluoro-1-(2-((1S,3S)-3-((5-(hydroxymethyl)-1,2,4-oxadiazol-3-yl)methyl)-1,2,2-trimethylcyclopentylamino)acetyl)pyrrolidine-2-carbonitrile]	47.70	inhibition at 0.3 µM ([2]; 300 nM compound concentration): 94.7%; Antihyperglycemic activity, reduction in AUC (blood glucose), Time 6.00 hr [5]: 51.55%; Antihyperglycemic activity, reduction in AUC (blood glucose), Time 12.00 hr ([5]; glucose 2 g/kg challenge 12.00 hr after compound administration): 29.62%
–	–	–	–	CC1(C)[C@@H](NCC(=O)N2C[C@@H](F)C[C@H]2C#N)CC[C@@]1(C)c1nc(-c2ccc(F)cc2)no1 [Example 65, (2S,4S)-4-Fluoro-1-(2-((1S,3R)-3-(3-(4-fluorophenyl)-1,2,4-oxadiazol-5-yl)-2,2,3-trimethylcyclopentylamino)acetyl)pyrrolidine-2-carbonitrile]	–	IC50 [1]: 238 nM
–	–	–	–	CC1(C)[C@@H](NCC(=O)N2CCC[C@H]2C#N)CC[C@@]1(C)c1nc(-c2ccc(F)cc2)no1 [Example 66, (S)-1-(2-((1S,3R)-3-(3-(4-Fluorophenyl)-1,2,4-oxadiazol-5-yl)-2,2,3-trimethylcyclopentylamino)acetyl)pyrrolidine-2-carbonitrile methanesulfonate]	–	inhibition at 0.3 µM [1]: 23.2%
26.7	>550	>25	149 to 153	CC1(C)[C@@H](NCC(=O)N2C[C@@H](F)C[C@H]2C#N)CC[C@@]1(C)c1nc(-c2ccncc2)no1 [Example 70, (2S,4S)-4-Fluoro-1-(2-((1S,3R)-2,2,3-trimethyl-3-(3-(pyridin-4-yl)-1,2,4-oxadiazol-5-yl)cyclopentylamino)acetyl)pyrrolidine-2-carbonitrile]	–	–
32.3	>1250	>35	65 to 70	CC1(C)[C@@H](NCC(=O)N2C[C@@H](F)C[C@H]2C#N)CC[C@@]1(C)c1nc(-c2cnccn2)no1 [Example 72, (2S,4S)-4-Fluoro-1-(2-((1S,3R)-2,2,3-trimethyl-3-(3-(pyrazin-2-yl)-1,2,4-oxadiazol-5-yl)cyclopentylamino)acetyl)pyrrolidine-2-carbonitrile]	–	–
41	>2300	>150	144 to 147	Cc1noc([C@@]2(C)CC[C@@H](NCC(=O)N3C[C@@H](F)C[C@H]3C#N)C2(C)C)n1 [Example 73, (2S,4S)-4-Fluoro-1-(2-((1R,3S)-2,2,3-trimethyl-3-(3-methyl-1,2,4-oxadiazol-5-yl)cyclopentylamino)acetyl)pyrrolidine-2-carbonitrile]	–	–
54.7	>900	>25	137 to 141	Cc1noc([C@]2(C)CC[C@H](NCC(=O)N3C[C@@H](F)C[C@H]3C#N)C2(C)C)n1 [Example 74, (2S,4S)-4-Fluoro-1-(2-((1S,3R)-2,2,3-trimethyl-3-(3-methyl-1,2,4-oxadiazol-5-yl)cyclopentylamino)acetyl)pyrrolidine-2-carbonitrile]	–	–

From US8466145B2, “Dipeptidyl peptidase IV inhibitors” (Orchid Chemicals & Pharmaceuticals Limited, priority 2009, dated 2013)
